A word on the IC50: it is the concentration needed to halve the response being measured. Usually viability stands for a read-out of living cells in per cent, often relative to untreated cells.

Details of data set [1]: method as in PMID 23098238. The settings on record: cited from earlier work.
The nature of data set [2]: DPPH• scavenging kinetics by UV-vis, pseudo-first-order conditions. The settings on record: for second-order rate constant k2 for the reaction with DPPH•: ethanol, 298 K, deaerated, DPPH• 2.2 × 10^−4 M, surfactant 0.012-0.12 M. How it is done:
After confirming that the absorption maximum at 517 nm of DPPH• is outside the surfactant’s absorption range, the rate of the DPPH•-scavenging reaction of the N-oxides was measured by monitoring the decrease in absorbance of this maximum. To ensure that the decay of DPPH• obeyed pseudo-first-order kinetics, the concentration of surfactants was at least a 54-fold excess of the DPPH• concentration. As explained in SI, the calculated pseudo-first-order rate constants, kobs, increased linearly with the concentration of Cn(DAPANO)2 and CnPDA (shown in SI). The second-order rate constants k2 for the reaction between the N-oxides and DPPH• were determined from the slopes of the linear plots of kobs vs. the concentration of the surfactants and are given in Figure 6.
The measurements were done under deaerated conditions at 298 K in ethanol solutions (2 mL in a 10 mm quartz cuvette) containing DPPH^• (C = 2.2 × 10^−4 M) and a surfactant at each of five different concentrations, namely C1 = 0.12 M, C2 = 0.09 M, C3 = 0.06 M, C4 = 0.03 M, and C5 = 0.012 M. UV−vis spectral changes associated with the undergoing reaction were monitored at 516 nm, using a Varian Cary 50Conc UV−visible Spectrophotometer. The following equations of the calibration curve were used to calculate DPPH^• concentrations in the reaction system: Abs = 4.0189 × C[mM] + 0.00813 (R^2 = 0.9998). The rate of DPPH^• scavenging reaction was determined using pseudo-first-order kinetics (the concentration of CnPDA or Cn(DAPANO)2 was maintained at more than 54-fold excess of the radical concentration); further details are given as Supporting Information.
On the technique in general: Loss of DPPH colour is used to gauge radical scavenging.

The test system of data set [3] is primary fibroblasts (HGFs). Kind of data set: MTT cell viability assay, HGFs. In kind it is cell-based, human. The following applies: Homo sapiens, Fibroblast, MTT. How it is done: (§1) HaCaT (immortalized human keratinocytes from histologically normal skin) cell line was obtained from the CLS Cell Lines Service GmbH (Eppelheim, Germany). HGFs (human gingival fibroblasts) derive from primary cell culture. The cells were isolated according to the procedure described by Saczko et al. and patented by Saczko et al.. Cells were grown in plastic cell culture flasks in Dulbecco’s Modified Eagle’s Medium, supplemented with fetal bovine serum (FBS, Lonza, Morrisville, NC, USA), with 100 IU/mL penicillin, 50 mg streptomycin, and 125 μg amphotericin B (Sigma). The cells were maintained in a humidified atmosphere at 37 °C and 5% CO2. The cells were regularly maintained by systematic passaging. For experimental purposes, the cells were removed by trypsinization (0.25% Trypsin-EDTA, Sigma).
(§2) MTT (Sigma) test was used to determine the viability of HaCaT and HGFs cells. The MTT assay was used to test mitochondrial metabolic functioning. Cells were seeded on flat bottom 96-well tissue culture plates at a density of 10^4 cells/well and allowed to grow in a CO2 incubator at 37 °C overnight. In the case of these studies, the culture medium was removed, surfactant solutions were added, and the cells were exposed for 24 and 48 h to compounds at doses ranging from 50 to 2000 μg/mL. After incubation, MTT assay was applied according to the manufacturer protocol. The absorbance was measured at 570 nm using a multiwell plate reader (EnSpire Multimode Reader, Perkin Elmer). Each experiment was performed in a few independent repetitions. Mean values and standard deviations of all results were calculated. The final results were expressed as the percentage of mitochondrial function relative to untreated control cells.
For orientation: Formazan colour is commonly taken as a measure of viable cells.

Data set [4] can be described thus: MTT cell viability assay, HGFs. In kind it is cell-based, human. The settings on record: human, primary human gingival fibroblasts (HGFs), evaluated for CMC; for viability at 24 h: read-out: Viability 24 h HGF’s; for viability at 48 h: read-out: Viability 48 h HGF’s. The procedure: as §1, §2
For data set [5], the system named is normal human keratinocytes (HaCaT). Kind of data set: MTT cell viability assay, HaCaT. Type of data set: cell-based. The following applies: Homo sapiens, HaCaT, MTT. The procedure:
as §1, §2

Data set [6] in a line: MTT cell viability assay, HaCaT. The following applies: human, HaCaT cells (immortalized human keratinocytes), evaluated for CMC. Type of data set: cell-based, human. The procedure: as §1, §2
Data set [7] is described as follows: Radical scavenging monitored by EPR spectroscopy, GO•. The following applies: after 60 min of reaction; C/CMC = 100. How it is done:
(§3) We began with an attempt to determine if the N-oxide surfactants can participate in the radical scavenging process when micelles are well-formed. Thus, the reaction mixtures containing a surfactant at C/CMC = 100, which is a typical concentration found in formulations, and GO• or DPPH• at 2 mM were prepared along with the control samples and monitored over time (solutions of DPPH• and GO• without surfactants).
(§4) The scavenging capacity of the surfactants was judged quantitatively by measuring the percentage of remaining GO• and DPPH• after a fixed reaction time. The relative concentration of GO• and DPPH• was calculated from Equation (1):(1) remaining radical%=It/I0×100% where I0 and It correspond to the EPR signal integral intensity of a radical in the absence and presence of the N-oxide surfactants after a fixed time, respectively.
(§5) The antiradical properties were studied by EPR using a Bruker ELEXYS E500 spectrometer equipped with an NMR gaussmeter and frequency counter. A microwave power of 10 mW, a modulation frequency of 100 kHz, a modulation amplitude of 1 G, a time constant of 82 ms, and a conversion time of 164 ms were adopted. The antiradical properties were evaluated against two model radicals: 2,2-diphenyl-1-picrylhydrazyl (DPPH•) and galvinoxyl (GO•). […]

Data set [8] can be described thus: Radical scavenging monitored by EPR spectroscopy, DPPH•. The following applies: after 60 min of reaction; C/CMC = 100. The procedure: as §3, §4, §5
On the set-up of data set [9]: method as in PMID 23098238. The settings on record: cited from earlier work. The source holds these as a separate data set.
Data set [10] can be described thus: Hydrodynamic radius of micelles by dynamic light scattering (DLS). Type of data set: physicochemical. The settings on record: 298 K, surfactant at 100 x CMC. How it is done:
The hydrodynamic diameter for CnPDA was determined by the DLS method. The measurements were performed using a Nano Series Zetasizer from Malvern Instruments (UK) with a detection angle of 173°, equipped with a He−Ne laser (632.8 nm) and an ALV 5000 multibit multitau autocorrelator. Before the measurements, the samples were filtered through a filter (with a pore size of 0.2 μm) directly into the optical cell to remove any impurities. All of the DLS measurements were performed at 298 ± 0.1 K and at a surfactant concentration a hundred times higher than the critical micelle concentration (CMC). Each value was obtained as the average of three runs with at least 10 measurements. The DTS software (Nano) was used to evaluate the data.

[11] abbreviates: 24 h incubation, read-out: IC50 HGFs 24 h.
[12] abbreviates: 48 h incubation, read-out: IC50 HGFs 48 h.
The mark [13] stands for this setting: 24 h incubation, read-out: IC50 HaCaT 24 h.
Where [14] appears, read: 48 h incubation, read-out: IC50 HaCaT 48 h.

≈ marks a conversion by molar mass, not a printed value. Like-named read-outs stand apart in the source and are kept apart here. Marks after values point to notes of the source that are not given here.

As to `CCCCCCCCCCCC(=O)N(CCC[N+](C)(C)[O-])CCC[N+](C)(C)[O-]` [C12(DAPANO)2], the CMC in [1] is 5.5·10^−3 a M. Moreover, the “second-order rate constant k2 for the reaction with DPPH•” value in data set [2] was 0.00108 M⁻¹ s⁻¹. Besides, in data set [2] (reaction with DPPH•), the “k2 higher in comparison with the CnPDA homolog” value was 19%. Besides, the IC50 in data set [3] (setting [11]) is 27.9 µg/mL (≈ 69.5 µM); in [3] (setting [12]), 1.2 µg/mL (≈ 2.99 µM); in data set [5] (setting [13]) it was 95 µg/mL (≈ 237 µM); in data set [5] (setting [14]), 94 µg/mL (≈ 234 µM). The viability at 24 h in data set [4] amounted to 17.1%; in [6], 9.2%. Further, the values for the viability at 48 h in data set [4] and in data set [6] were 10.8% and 16.4%, respectively. Moreover, the “reduced the number of GO• by” value in data set [7] amounted to 88%. The “reduced the number of DPPH• by” value in [8] is reported as 86%. Also, in [9], the “RH DLS” value is on record as 2.04 ^a nm.

With `CCCCCCCCCCCC(=O)NCCC[N+](C)(C)[O-]` [C12PDA], the “second-order rate constant k2 for the reaction with DPPH•” value in [2] came to 0.000905 M⁻¹ s⁻¹. Further, the IC50 in data set [3] (setting [11]) turned out to be 51.9 µg/mL (≈ 173 µM); in data set [3] (setting [12]) it was 49.8 µg/mL (≈ 166 µM); in data set [5] (setting [13]), 31 µg/mL (≈ 103 µM); in data set [5] (setting [14]), 18.8 µg/mL (≈ 62.6 µM). The viability at 24 h in data set [4] was determined as 55.5%; in data set [6], 89.4%. Also, the viability at 48 h in data set [4] came to 44.8%; in [6], 116%. The “reduced the number of GO• by” value in [7] was 59%. For the same compound, the “RH DLS” value in data set [10] stood at 1.96 nm. In addition, the “reduced the number of DPPH• by” value in data set [8] was determined as 24%.

These data come from PMC8346996, “Antiradical Properties of N-Oxide Surfactants—Two in One” (International Journal of Molecular Sciences, 2021).
